Laboratory results from patent publication US7955838B2, “Methods and device for adhesive control of internal cell organisation” (Institut Curie, priority 2003, dated 2011).

System: HeLa cells stably expressing centrin1-GFP
Assay: Nocodazole treatment of premitotic cells on [L] fibronectin micropatterns (centrosome separation, cell rounding, spindle orientation)
Format: cell-based, human
Conditions: for Distribution of spindle orientations after nocodazole wash-out: after wash-out of 10^−7 M nocodazole, [L] patterns, versus non-treated cells
Description: HeLa, human epithelial cells, stably expressing centrin1-GFP (Piel et al. J. Cell Biol. 149, 317-329 (2000), were cultured in Dulbecco Modified Eagle Medium with 10% foetal calf serum, 1% penicillin and streptomycin, and 1% glutamine at 37° C. Cells were synchronised using a double thymidine block and then removed from their flask using […], 10 minutes at 37° C. After removing the […] by centrifugation, cells were resuspended in DMEM with 1% FCS and deposited on the printed coverslip at a density of 10^4 cells/cm^2. The inventors used an inverted Leica DMIRBE microscope with an heated and motorized stage combined with a home-made plastic cell chamber to hold the printed glass coverslip, which was covered by a porous membrane allowing CO2 buffering at pH-7.4. Metamorph software (Universal Imaging) was used for image acquisition. Numerous cell divisions were followed using a time-lapse phase contrast on a multi-fields acquisition at a frame rate of one picture every 3 minutes with a 10× magnitude objective. Centrosome movements were followed during mitosis with a 63× apochromat objective lens (Leica) using fluorescent Z acquisitions through a green filter and a phase contrast picture of the cell bottom every 5 minutes. A software has been developed. This software was able to automatically recognise a single fluorescent micropattern within a field and detect the presence of a single cell attached to it. Individual cell divisions were extracted from the 10× phase contrast time-lapse recordings and every picture automatically segmented using a wavelet decomposition and fitted with an ellipse (FIG. 1b). The moment of cell elongation in anaphase was precisely detected, as the shape factor, defined as the ellipse length ratio, suddenly dropped from more than 0.9 to less than 0.6 (FIG. 1c). The angle between the major axis of the ellipse, corresponding to spindle orientation, and the vertical reference of the pattern oriented as shown on FIG. 2 was then recorded. The position of the centre of the round mitotic cell with respect to the pattern was also automatically recorded 6 minutes before anaphase.[…]. The mechanisms by which the premitotic actin network is remodeled during mitotic cortical retraction and the correlative formation of actin-rich retraction fibers are not fully understood. In order to address whether spindle assembly had to take place during the remodelling of the actin network to be correctly oriented, centrosomes were prevented from separating during cell retraction on [L] patterns by treating premitotic cells with 10^-7 M nocodazole during one hour. […] After nocodazole washout, centrosomes separated and formed a bipolar spindle (FIG. 4C). […] RFs are good candidates for guiding spindle orientation as they are maintained despite nocodazole treatment.

[1] = 10^−7 M nocodazole during one hour, premitotic cells on [L] patterns

Compound: COC(=O)Nc1nc2ccc(C(=O)c3cccs3)cc2[nH]1 [nocodazole]
- Effect on cell rounding [1]: did not block cell rounding
- Effect on mitosis / centrosome separation [1]: blocked cells in metaphase with unseparated centrosomes
- Distribution of spindle orientations after nocodazole wash-out: still preferentially orientated parallel to the hypotenuse of the triangle
- Distribution of spindle orientations after nocodazole wash-out (listed as NZ): spindles are still able to mainly orient in round cell bodies as in control cells
- Retracting fibers (RFs) under nocodazole treatment (nocodazole-treated mitotic cells on [L] patterns): maintained
